Assay: Heptane/acetonitrile partition (Kpartition) and extraction factor after hydroformylation
Type: physicochemical
Settings: for Kpartition = amount of product in the heptane phase/amount of product in the acetonitrile phase: Examples 4, 6, 8, Ligand B reaction solution in heptane (2 milliliters) extracted with acetonitrile (2 milliliters), gas chromatography; for Kpartition = amount of material in the heptane phase/amount of material in the acetonitrile phase: room temperature; for extraction factor = Kpartition rhodium/Kpartition product: heptane/acetonitrile
Procedure: To the vessel was then added an equal volume of acetonitrile. The mixture was vigorously shaken for several minutes then allowed to settle and phase separate. The layers were then analyzed for rhodium content and hydroformylation product. The partition coefficient of the catalyst and the product, as defined bay Kpartition=amount of material in the heptane phase/amount of material in the acetonitrile phase, was then determined for each component.
A portion of the reaction solution (2 milliliters) was extracted with acetonitrile (2 milliliters). The phases were separated and the content of ethyl 11-formylundecanoate product was determined in both phases by gas chromatography.
A portion of the reaction solution (2 milliliters) was extracted with acetonitrile (2 milliliters). The phases were separated, and the content of methyl 11-formylundecanoate product in each phase was determined by gas chromatography.
A portion of the reaction solution (2 milliliters) was extracted with acetonitrile (2 milliliters). The phases were separated and the content of butyl 11-formylundecanoate product was determined in both phases by gas chromatography.
A portion of the reaction solution (5 mL) was diluted with heptane (10 mL), shaken at room temperature under nitrogen with acetonitrle (13 mL) and allowed to settle. Two phases with approximately equal volumes were analyzed for rhodium and the hydroformylation product. The partition coefficient of the catalyst and the product defined as Kpartition=amount of material in the heptane phase/amount of material in the acetonitrile phase was determined for each component.

| Kpartition = amount of product in the heptane phase/amount of product in the acetonitrile phase | Kpartition = amount of material in the heptane phase/amount of material in the acetonitrile phase (Example 2, Example 1 reaction solution (Ligand A, ethyl 10-undecenoate), equal volume acetonitrile) | extraction factor = Kpartition rhodium/Kpartition product (Example 2) | Kpartition = amount of material in the heptane phase/amount of material in the acetonitrile phase (Example 9, Ligand A, methyl 10-undecenoate, 5 mL reaction solution diluted with heptane (10 mL), acetonitrile (13 mL)) | extraction factor = Kpartition rhodium/Kpartition product (Example 9) | Compound |
| --- | --- | --- | --- | --- | --- |
| 0.25 | – | – | – | – | CCOC(=O)CCCCCCCCCCC=O [ethyl 11-formylundecanoate] |
| 0.56 | – | – | – | – | CCCCOC(=O)CCCCCCCCCCC=O [butyl 11-formylundecanoate] |
| 0.19 | – | – | – | – | COC(=O)CCCCCCCCCCC=O [methyl 11-formylundecanoate] |
| – | 170 | 680 | 166 | 976 | rhodium |
